Values joined by “and” are separate entries in the source; they are usually repeats but may differ in a detail not shown here. Identical values can stand only once.
How the values were obtained:
[1] = system: unresectable, locally advanced stage III NSCLC; assay: Phase 2 clinical trial of pembrolizumab plus platinum doublet chemotherapy and concurrent radiotherapy: ORR, duration of response, PFS, OS by BICR per RECIST v1.1; format: in vivo, human; details: pembrolizumab plus CCRT; for 6-mo OS rate / 6-mo PFS rate / Response duration ≥6 month, % / Duration of response, median (range): Kaplan-Meier estimate; for Duration of response, median (range): + = no progressive disease at last assessment; for ORR, % [90% CI]: patients with ≥15 weeks follow up, data cutoff Jan. 3, 2020
Source text: (§1) FIG. 1 illustrate a schema of a clinical phase 2 study of pembrolizumab plus platinum doublet chemotherapy and concurrent radiotherapy as first-line therapy for unresectable, locally advanced stage III NSCLC (NSCLC).
(§2) This is a non-randomized, open label study. FIG. 1 sets forth a schematic of the study. The primary objective is overall response rate (ORR) per response evaluation criteria in solid tumors (RECIST) version 1.1 by blinded independent central review (BICR). Secondary objectives are progression free survival (PFS), overall survival (OS) and safety. Key eligibility criteria are as set forth in FIG. 1 and include Stage IIIA-C, unresectable, locally advanced, pathologically confirmed, previously untreated NSCLC; measurable disease based on RECIST v1.1; eastern cooperative oncology group (ECOG) performance status 0 or 1; adequate pulmonary function; and no prior systemic immunosuppressive therapy within 7 days.
The table below provides ORR and Duration of Response/Efficacy by BICR per RECIST v1.1, patients with ≥15 weeks follow up (Jan. 3, 2020 data cutoff date)
PFS and OS were assessed in patients with at least 15 weeks follow up. As shown in the table above, at the data cutoff, few patients in either cohort had experienced disease progression or died.

[2] = Phase 2 clinical trial of pembrolizumab plus platinum doublet chemotherapy and concurrent radiotherapy: grade ≥3 pneumonitis and adverse events; format: in vivo, human; details: pembrolizumab plus CCRT; for Grade ≥3 pneumonitis (all cause), % [90% CI]: all enrolled patients, data cutoff Jan. 3, 2020
Source text: as §1, §2
A secondary primary objective of the study was incidence of grade≥3 pneumonitis, which was assessed in all enrolled patients, regardless of their follow-up duration (see table below). In both cohorts, the rate of grade≥3 pneumonitis was less than 10%. One patient in cohort B had interstitial lung disease; the remaining patients had either pneumonitis or radiation pneumonitis. Incidence of other adverse events was consistent with that reported in other pembrolizumab monotherapy studies in NSCLC. Immune-mediated adverse events and infusion reactions (regardless of attribution to study treatment by the investigator) occurred in 47% of patients in cohort A and 27% in cohort B. 15% of patients in cohort A and 8% in cohort B experienced grade 2-5 immune mediated adverse events or infusion reactions.

[3] = Cohort A, N = 112, ≥15 weeks follow up
[4] = Cohort B, N = 53, ≥15 weeks follow up

pembrolizumab: monoclonal antibody directed to the PD-1 receptor; KEYTRUDA, Merck and Co., Inc.
6-mo OS rate ([1]; Cohort A, N = 112): 87% and 87.2% | 6-mo PFS rate ([1]; Cohort A, N = 112): 81.4% | Response duration ≥6 month, % ([1]; Cohort A, N = 112): (91.1) % | Duration of response, median (range) ([1]; Cohort A, N = 112): NR (1.6+ to 10.5+) | ORR, % [90% CI] ([1]; Cohort A, N = 112): (67.0) [58.9-74.3] % | Complete response (CR), % [1, 3]: (2.7) % | No Assessment, % [1, 3]: (8.9) % | Not evaluable, % [1, 3]: (2.7) % | PD, % [1, 3]: (0.9) % | Partial response (PR), % [1, 3]: (64.3) % | 6-mo OS rate ([1]; Cohort B, N = 53): 95% and 94.8% | 6-mo PFS rate ([1]; Cohort B, N = 53): 85.2% | Response duration ≥6 month, % ([1]; Cohort B, N = 53): (100) % | Duration of response, median (range) ([1]; Cohort B, N = 53): NR (1.7+ to 10.5+) | ORR, % [90% CI] ([1]; Cohort B, N = 53): (56.6) [44.4-68.2] % | Complete response (CR), % [1, 4]: (3.8) % | No Assessment, % [1, 4]: (9.4) % | Partial response (PR), % [1, 4]: (52.8) % | ORR ([1]; both cohorts): exceeded 50% | progression free survival rate at 6 months ([1]; both cohorts, at least 15 weeks follow up): greater than 80% | Median overall survival ([1]; either cohort, at data cutoff): had not been reached | Median progression free survival ([1]; either cohort, at data cutoff): had not been reached | Estimated response duration ([1]; most patients with a response): ≥ 6 months | antitumor activity ([1]; patients with unresectable, locally advanced stage III NSCLC): promising antitumor activity | Immune-mediated adverse events and infusion reactions, Grades 3-5, % ([2]; Cohort A, N = 112): (15.2) % | Immune-mediated adverse events and infusion reactions, Led to death, % ([2]; Cohort A, N = 112): (3.6) % | Treatment Releated Adverse Events, % ([2]; Cohort A, N = 112): (93.8) % | Treatment Releated Adverse Events, Grade 3-5, % ([2]; Cohort A, N = 112): (64.3) % | Treatment Releated Adverse Events, Led to death, % ([2]; Cohort A, N = 112): (3.6) % | Treatment Releated Adverse Events, Led to discontinuation of any treatment component, % ([2]; Cohort A, N = 112): (28.6) % | Grade ≥3 pneumonitis (all cause), % [90% CI] ([2]; Cohort A, N = 112): (8.0) [4.3-13.6] % | Treatment Releated Adverse Events, % ([2]; Cohort B, N = 73): (87.7) % | Treatment Releated Adverse Events, Grade 3-5, % ([2]; Cohort B, N = 73): (41.1) % | Treatment Releated Adverse Events, Led to discontinuation of any treatment component, % ([2]; Cohort B, N = 73): (12.3) % | Grade ≥3 pneumonitis (all cause), % [90% CI] ([2]; Cohort B, N = 73): (5.5) [1.9-12.1] % | grade 2-5 immune mediated adverse events or infusion reactions, % of patients ([2]; cohort A): 15% | grade 2-5 immune mediated adverse events or infusion reactions, % of patients ([2]; cohort B): 8% | patients with interstitial lung disease (among grade ≥3 pneumonitis) ([2]; cohort B): One | incidence of adverse events ([2]; compared with CCRT for stage III NSCLC and pembrolizumab monotherapy): consistent with the established toxicity profiles | Observed rates of grade ≥3 pneumonitis ([2]; compared with immunotherapy combined with CCRT): within the expected range
